Laboratory results published in US4443466A, “4-Benzyl- and 4-benzoyl-substituted imidazole derivatives and use as medicaments” (priority 1980, dated 1984).
Like-named read-outs stand apart in the source and are kept apart here.

Columns and labels:
[1] = tested on: anesthetized Sprague-Dawley rats (blood pressure, pulse frequency); assay: Blood pressure and pulse frequency in anesthetized normal-weight Sprague-Dawley rats (i.v.); type: in vivo, rat (Sprague-Dawley); details: for minimal effective dose: Rattus norvegicus, iv; for anti-hypertensive effect: tested as above
Description: The anti-hypertensive properties of the imidazole derivatives of the present invention have been determined according to the following procedure. Sprague-Dawley rats of normal weight were first anesthetized with urethane. After this, the femoral artery was connected by way of a polyethylene tube with a blood pressure transducer. The test substance was then injected into the femoral vein and the blood pressure and the pulse frequency were registered with a recorder. The minimum doses producing a significant change were found, i.e. ± at least 20% in the case of blood pressure, and ± at least 3% in the case of pulse frequency.

[2] = tested on: acetic acid-induced writhing; assay: Writhing test (acetic acid); type: in vivo, rat;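 for Analgesic activity: ++ means marked effect and + means moderate effect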
Description: (§1) The analgesic activity of the compounds of formula (I) was tested in the following manner: […]
The compounds studied and saline were administered p.o. to rats. Forty-five minutes later, 1 ml of 1% acetic acid was administered i.p. The number of writhes was recorded in the following 25 minute period (Koster et al: Fed. Proc. 18:412, 1959).

[3] = tested on: carrageenan-induced oedema; assay: Inhibition of carrageenan-induced oedema; type: in vivo, rat; details: for inhibition in vivo at 100 mg/kg: po, read-out: inhibition carrageenan-induced oedema (%);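 for Anti-inflammatory activity: ++ means marked effect and + means moderate effect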
Description: The anti-inflammatory activity of the compounds of the invention was determined by inhibition of the carrageenan induced oedema in rats by the compounds examined (Winter C. A. et al., Proc. Soc. Exp. Biol. Med. 111:544, 1962).

[4] = Preventive effect on formation of indomethacin-induced ulcers; type: in vivo, rat (female Sprague-Dawley); details: rat, in vivo, iv; LD50 (mouse, i.v.) / ED50 (ulcer); read-out: Therapeutic Index
[5] = tested on: indomethacin-induced ulcers; assay: as above; type: in vivo, rat (female Sprague-Dawley); details: for ED50: Rattus norvegicus, ip, 4 h, read-out: ED50 (ulcer prevention)
[6] = tested on: male mice on a 55° C. hot plate; assay: Hot plate test; type: in vivo, mouse (male); details: for change in vivo at 1.5 mg/kg: Mus musculus, ip, 0.5 h, 1.5 mg/kg i.p., read-out: increase in HP-time (%); for Analgesic activity: 1.5 mg/kg
Description: as §1
Test compounds or saline were given i.p. to male mice. Thirty minutes thereafter, the time for which the mice remained on a 55° C. plate was recorded. The results are expressed as compared to saline.

[7] = tested on: cattle (avoidance, muscle tone); assay: Tranquilizing or taming effect on cattle; type: in vivo; details: 0.1 mg/kg i.m.
Description: (§2) The tranquilizing activity of the compounds was determined by the following methods:
(2) Tranquilizing or taming effect on cattle:
The test compounds were administered i.m. to cattle, mostly to heifers (150-200 kg).
The most suitable tranquilized state of an animal includes the ability to retain the upright position and coordination with minimal avoidance reactions to painful stimuli and handling. Thus, a combination of sedative and analgesic potency is required.

[8] = Acute toxicity in female NMRI mice, i.v.; details: in vivo, iv, mouse
Description: Acute toxicity was determined by using female mice of NMRI-Strain with an age of about 7 months and weighing 30-40 g. The administration of the test compound was i.v.

[9] = tested on: rats (motility, muscle tone, catalepsia); assay: Tranquilizing activity: Irwin screen in rats; type: in vivo, rat; details: 1.0 mg/kg
Description: as §2
(1) Irwin screen in rats (Irwin S., Psychopharmacologia 13:222, 1968)
Especially sedatory and cataleptic activity and effects on muscle tone are observed.

[10] = read-out: Blood Pressure Minimum Dose having a significant lowering effect
[11] = read-out: Pulse frequency Minimum Dose having a significant lowering effect

SMILES	Analgesic activity ([2]; 100 mg/kg)	W-number ([2]; 100 mg/kg p.o.)	Anti-inflammatory activity ([3]; 100 mg/kg p.o. in the rat)	inhibition in vivo at 100 mg/kg ([3]; Rattus norvegicus)	LD50 [8]	other results
COc1ccccc1C(O)c1c[nH]cn1 (stereo not drawn) [4-[α-(2'-Methoxyphenyl)]hydroxymethylimidazole]	+	2.5	++	69%		minimal effective dose [1, 10]: 0.3 to 1 mg/kg; minimal effective dose [1, 11]: 1 mg/kg
Cc1cccc(Cc2c[nH]cn2)c1 [4-(3'-methylbenzyl)imidazole, 4-(3'-Methylbenzyl)imidazole]			+	61%	38 mg/kg	selectivity ratio [4]: 1900; ED50 [5]: 0.02 mg/kg; Analgesic activity ([2]; 30 mg/kg): ++; W-number ([2]; 30 mg/kg p.o.): 0; change in vivo at 1.5 mg/kg [6]: 50%; loss of avoidance [7]: +
CCc1ccccc1Cc1c[nH]cn1 [4-(2'-ethylbenzyl)imidazole, 4-(2'-Ethylbenzyl)imidazole]					34 mg/kg	selectivity ratio [4]: 6800; ED50 [5]: 0.005 mg/kg; Analgesic activity [6]: +; change in vivo at 1.5 mg/kg [6]: 150%
CCc1cccc(CC)c1C(O)c1c[nH]cn1 (stereo not drawn) [4-[α-(2',6'-diethylphenyl)]hydroxymethylimidazole]						minimal effective dose [1, 10]: 0.3 to 1 mg/kg; minimal effective dose [1, 11]: 0.3 to 1 mg/kg
CCc1ccccc1C(O)c1c[nH]cn1 (stereo not drawn) [4-[α-(2'-Ethylphenyl)]hydroxymethylimidazole]	++	0	++	73%		Analgesic activity [6]: +; change in vivo at 1.5 mg/kg [6]: 300%
CCc1cccc(CC)c1Cc1c[nH]cn1 [4-(2',6'-diethylbenzyl)imidazole]						minimal effective dose [1, 10]: 0.03 to 0.2 mg/kg; minimal effective dose [1, 11]: 0.03 mg/kg
Cc1ccc(C(O)c2c[nH]cn2)c(C)c1 (stereo not drawn) [4-[α-(2',4'-Dimethylphenyl)]hydroxymethylimidazole]	+	1.3				
Cc1ccc(C(O)c2c[nH]cn2)cc1 (stereo not drawn) [4-[α-(4'-Methylphenyl)]hydroxymethylimidazole]	++	0.6	+	38%		
Cc1cccc(C(O)c2c[nH]cn2)c1C (stereo not drawn) [4-[α-(2',3'-Dimethylphenyl)]hydroxymethylimidazole]	++	0	+	52%		Analgesic activity [6]: ++; change in vivo at 1.5 mg/kg [6]: 400%
Cc1ccccc1Cc1c[nH]cn1 [4-(2'-methylbenzyl)imidazole, 4-(2'-Methylbenzyl)imidazole]					25 mg/kg	lowering of blood pressure ([1]; 0.5 mg/kg i.v., 30 minutes after administration): 10%; minimal effective dose [1, 10]: 0.01 to 0.1 mg/kg; minimal effective dose [1, 11]: 0.1 to 1 mg/kg; selectivity ratio [4]: 5000; prevention of the formation of ulcers ([5]; 5 μg/kg i.p.): complete prevention of the formation of ulcers; ED50 [5]: 0.005 mg/kg; Analgesic activity [6]: +; change in vivo at 1.5 mg/kg [6]: 200%
Cc1cccc(C)c1C(=O)c1c[nH]cn1 [4-(2',6'-dimethylbenzoyl)imidazole, 4-(2',6'-Dimethylbenzoyl)imidazole]					> 100 mg/kg	anti-hypertensive effect [1]: only a very slight anti-hypertensive effect; prevention of the formation of ulcers ([5]; 10 mg/kg): prevented them partially; prevention of the formation of ulcers ([5]; 20 mg/kg): prevented completely the formation of ulcers
COC(c1c[nH]cn1)c1c(C)cccc1C (stereo not drawn) [4-[α-(2',6'-Dimethylphenyl)]methoxymethylimidazole]	+	13	+	40%		
Cc1cccc(C)c1Cc1nc[nH]c1C [5-Methyl-4-(2',6'-dimethylbenzyl)imidazole]					27 mg/kg	anti-hypertensive effect [1]: no anti-hypertensive effect was found; prevention of the formation of ulcers ([5]; 0.5 mg/kg): partly prevented the formation of ulcers; prevention of the formation of ulcers ([5]; 5 mg/kg): prevented them completely
Cc1ccccc1Cc1nc[nH]c1C [5-methyl-4-(2'-methylbenzyl)imidazole, 5-Methyl-4-(2'-methylbenzyl)imidazole]			+			Analgesic activity ([2]; 30 mg/kg): +; W-number ([2]; 30 mg/kg p.o.): 43; inhibition in vivo at 100 mg/kg ([3]; 100 mg/kg p.o. in the rat): 44%
Cc1cccc(C(O)c2c[nH]cn2)c1 (stereo not drawn) [4-[α-(3'-Methylphenyl)]hydroxymethylimidazole]	++	0	+	34%		
Clc1cccc(Cl)c1Cc1cnc[nH]1 [4-(2',6'-dichlorobenzyl)imidazole, 4-(2',6'-Dichlorobenzyl)imidazole]					48 mg/kg	minimal effective dose [1, 10]: 0.03 to 0.1 mg/kg; minimal effective dose [1, 11]: 0.03 to 0.1 mg/kg; selectivity ratio [4]: 1600; ED50 [5]: 0.03 mg/kg
Cc1ccccc1C(O)c1nc[nH]c1C (stereo not drawn) [5-Methyl-4-[α-(2'-methylphenyl)]hydroxymethylimidazole]			+			inhibition in vivo at 100 mg/kg ([3]; 100 mg/kg p.o. in the rat): 67%
Cc1ccc(C(=O)c2c[nH]cn2)cc1 [4-(4'-methylbenzoyl)imidazole, 4-(4'-Methylbenzoyl)imidazole]			+			inhibition in vivo at 100 mg/kg ([3]; 100 mg/kg p.o. in the rat): 40%
COc1cccc(C(O)c2c[nH]cn2)c1 (stereo not drawn) [4-[α-(3'-Methoxyphenyl)]hydroxymethylimidazole]	++	0	++	71%		
Cc1ccc(Cc2c[nH]cn2)c(C)c1 [4-(2',4'-dimethylbenzyl)imidazole, 4-(2',4'-Dimethylbenzyl)imidazole]	++	0	++	76%	65 mg/kg	selectivity ratio [4]: 2170; ED50 [5]: 0.03 mg/kg; Analgesic activity [6]: +; change in vivo at 1.5 mg/kg [6]: 200%
Cc1cc(C)c(Cc2c[nH]cn2)c(C)c1 [4-(2',4',6'-trimethylbenzyl)imidazole, 4-(2',4',6'-Trimethylbenzyl)imidazole]					63 mg/kg	minimal effective dose [1, 10]: 0.05 to 0.2 mg/kg; minimal effective dose [1, 11]: 0.03 mg/kg; selectivity ratio [4]: 2100; ED50 [5]: 0.03 mg/kg; catalepsia [9]: +; decrease of motility [9]: ++; loss of avoidance [7]: +; loss of muscle tone [7]: +
Cc1cccc(C)c1C(O)c1nc[nH]c1C (stereo not drawn) [5-Methyl-4-[α-(2',6'-dimethylphenyl)]hydroxymethylimidazole]	+	13	+			inhibition in vivo at 100 mg/kg ([3]; 100 mg/kg p.o. in the rat): 52%
COc1ccc(C(O)c2c[nH]cn2)cc1 (stereo not drawn) [4-[α-(4'-Methoxyphenyl)]hydroxymethylimidazole]	+	1.9				
CCOC(c1c[nH]cn1)c1c(C)cccc1C (stereo not drawn) [4-[α-(2',6'-Dimethylphenyl)]ethoxymethylimidazole]	++	0.6	+	35%	45 mg/kg	anti-hypertensive effect [1]: only a very slight anti-hypertensive effect; prevention of the formation of ulcers ([5]; 0.5 mg/kg): prevented them partly; prevention of the formation of ulcers ([5]; 5 mg/kg): completely prevented the formation of ulcers
Cc1ccccc1C(=O)c1nc[nH]c1C [5-methyl-4-(2'-methylbenzoyl)imidazole, 5-Methyl-4-(2'-methylbenzoyl)imidazole]			+			inhibition in vivo at 100 mg/kg ([3]; 100 mg/kg p.o. in the rat): 44%
Cc1ccccc1C(O)c1c[nH]cn1 (stereo not drawn) [4-[α-(2'-Methylphenyl)]hydroxymethylimidazole]	++	0	+	41%	160 mg/kg	anti-hypertensive effect [1]: no anti-hypertensive effect was found; prevention of the formation of ulcers ([5]; 0.5 mg/kg): prevented them partly; prevention of the formation of ulcers ([5]; 5 mg/kg): completely prevented the formation of ulcers
